PubChem BioAssay AID1259407 (Chemical Carcinogenesis Research Information System (CCRIS), 2018)
Calls of active or inactive are those of the source. No rule for the calls is given here.

Tested on: CCRIS mutagenicity, Ames/micronucleus/aberration tests
Assay: CCRIS mutagenicity studies
[1] = Test System: AMES SALMONELLA TYPHIMURIUM, Strain/Indicator: TA98, Metabolic Activation: NONE, Method: STANDARD PLATE
[2] = Test System: AMES SALMONELLA TYPHIMURIUM, Strain/Indicator: TA100, Metabolic Activation: NONE, Method: STANDARD PLATE
[3] = Test System: AMES SALMONELLA TYPHIMURIUM, Strain/Indicator: TA100, Metabolic Activation: RAT, LIVER, S-9, AROCLOR 1254, Method: STANDARD PLATE
[4] = Test System: AMES SALMONELLA TYPHIMURIUM, Strain/Indicator: TA1535, Metabolic Activation: NONE, Method: STANDARD PLATE
[5] = Test System: AMES SALMONELLA TYPHIMURIUM, Strain/Indicator: TA1537, Metabolic Activation: NONE, Method: STANDARD PLATE

For `O=C(O)C(Cl)Cl`, the mutagenic call (End Point: IN VITRO CHROMOSOMAL ABERRATIONS, Test System: CHL CELLS, Metabolic Activation: RAT, LIVER, S-9, SODIUM PHENOBARBITAL AND 5,6-BENZOFLAVONE) was “active; positive (structural changes)”, the mutagenic call (End Point: In vivo micronucleus, Test System: Normochromatic erythrocytes, Species: Mouse, Strain/Sex: B6C3F1/Male, Route: Oral) was “inactive; negative” and the mutagenic call (End Point: In vivo micronucleus, Test System: Peripheral blood normochromatic erythrocytes, Species: Mouse, Strain/Sex: B6C3F1/Female, Route: Oral) was “inactive; negative; increase in frequency of micronucleated erythrocytes was judged to be”. For the same compound, the mutagenic call (End Point: In vivo micronucleus, Test System: Peripheral blood normochromatic erythrocytes, Species: Mouse, Strain/Sex: B6.129-TRP53TM1 BRD/Female, Route: Oral) was “inactive; negative”, the mutagenic call (End Point: In vivo micronucleus, Test System: Peripheral blood normochromatic erythrocytes, Species: Mouse, Strain/Sex: B6.129-TRP53TM1 BRD/Male, Route: Oral) was “inactive; negative” and the mutagenic call (End Point: In vivo micronucleus, Test System: Peripheral blood normochromatic erythrocytes, Species: Mouse, Strain/Sex: FVB/N-TgN (v-Ha-ras)Led (Tg.AC) hemizygous/Female, Route: Dermal) was “inactive; negative”. For the same compound, the mutagenic call (End Point: In vivo micronucleus, Test System: Peripheral blood normochromatic erythrocytes, Species: Mouse, Strain/Sex: FVB/N-TgN (v-Ha-ras)Led (Tg.AC) hemizygous/Male, Route: Dermal) was “inactive; negative”, the mutagenic call (End Point: In vivo micronucleus, Test System: Peripheral blood normochromatic erythrocytes, Species: Mouse, Strain/Sex: Tg.AC hemizygous/Female, Route: Oral) was “inactive; negative” and the mutagenic call (End Point: In vivo micronucleus, Test System: Peripheral blood normochromatic erythrocytes, Species: Mouse, Strain/Sex: Tg.AC hemizygous/Male, Route: Oral) was “inactive; negative”. The mutagenic call (Test System: AMES SALMONELLA TYPHIMURIUM, Strain/Indicator: RSJ100, Metabolic Activation: NONE, Method: PREINCUBATION) was “active; positive”, the mutagenic call (Test System: AMES SALMONELLA TYPHIMURIUM, Strain/Indicator: RSJ100, Metabolic Activation: RAT LIVER S-9, Method: PREINCUBATION) was “inactive; negative” and the mutagenic call [1] was “inactive; negative”. For the same compound, the mutagenic call (Test System: AMES SALMONELLA TYPHIMURIUM, Strain/Indicator: TA98, Metabolic Activation: RAT LIVER S-9, Method: PREINCUBATION) was “inactive; negative”, the mutagenic call (Test System: AMES SALMONELLA TYPHIMURIUM, Strain/Indicator: TA98, Metabolic Activation: RAT, LIVER, S-9, AROCLOR 1254, Method: STANDARD PLATE) was “inactive; negative” and the mutagenic call (Test System: AMES SALMONELLA TYPHIMURIUM, Strain/Indicator: TA98, Metabolic Activation: RAT, LIVER, S-9, PHENOBARBITAL AND 5,6-BENZOFLAVONE, Method: PREINCUBATION) was “inactive; negative”. For the same compound, the mutagenic call (Test System: AMES SALMONELLA TYPHIMURIUM, Strain/Indicator: TA100, Metabolic Activation: NONE, Method: BAG VAPORIZATION) was “active; positive”, the mutagenic call (Test System: AMES SALMONELLA TYPHIMURIUM, Strain/Indicator: TA100, Metabolic Activation: NONE, Method: FLUCTUATION TEST) was “active; positive” and the mutagenic call (Test System: AMES SALMONELLA TYPHIMURIUM, Strain/Indicator: TA100, Metabolic Activation: NONE, Method: PREINCUBATION) was “active; positive”. The mutagenic call [2] was “inactive; negative”, the mutagenic call (Test System: AMES SALMONELLA TYPHIMURIUM, Strain/Indicator: TA100, Metabolic Activation: RAT LIVER S-9, Method: PREINCUBATION) was “active; positive” and the mutagenic call (Test System: AMES SALMONELLA TYPHIMURIUM, Strain/Indicator: TA100, Metabolic Activation: RAT, LIVER, S-9, AROCLOR 1254, Method: BAG VAPORIZATION) was “active; positive”. The mutagenic call (Test System: AMES SALMONELLA TYPHIMURIUM, Strain/Indicator: TA100, Metabolic Activation: RAT, LIVER, S-9, AROCLOR 1254, Method: FLUCTUATION TEST) was “active; positive”, the mutagenic call [3] was “inactive; negative” and the mutagenic call (Test System: AMES SALMONELLA TYPHIMURIUM, Strain/Indicator: TA100, Metabolic Activation: RAT, LIVER, S-9, PHENOBARBITAL AND 5,6-BENZOFLAVONE, Method: PREINCUBATION) was “inactive; negative”. For the same compound, the mutagenic call (Test System: AMES SALMONELLA TYPHIMURIUM, Strain/Indicator: TA102, Metabolic Activation: NONE, Method: STANDARD PLATE) was “inactive; negative”, the mutagenic call (Test System: AMES SALMONELLA TYPHIMURIUM, Strain/Indicator: TA102, Metabolic Activation: RAT LIVER S-9, AROCLOR 1254, Method: STANDARD PLATE) was “inactive; negative” and the mutagenic call (Test System: AMES SALMONELLA TYPHIMURIUM, Strain/Indicator: TA102, Metabolic Activation: RAT, LIVER, S-9, PHENOBARBITAL AND 5,6-BENZOFLAVONE, Method: STANDARD PLATE) was “inactive; negative”. For the same compound, the mutagenic call [4] was “inactive; negative”, the mutagenic call (Test System: AMES SALMONELLA TYPHIMURIUM, Strain/Indicator: TA1535, Metabolic Activation: RAT, LIVER, S-9, AROCLOR 1254, Method: STANDARD PLATE) was “inactive; negative” and the mutagenic call [5] was “inactive; negative”. For the same compound, the mutagenic call (Test System: AMES SALMONELLA TYPHIMURIUM, Strain/Indicator: TA1537, Metabolic Activation: RAT, LIVER, S-9, AROCLOR 1254, Method: STANDARD PLATE) was “inactive; negative”, the mutagenic call (Test System: AMES SALMONELLA TYPHIMURIUM, Strain/Indicator: TA2638, Metabolic Activation: RAT, LIVER, S-9, PHENOBARBITAL AND 5,6-BENZOFLAVONE, Method: STANDARD PLATE) was “inactive; negative” and the mutagenic call (Test System: Ames Salmonella typhimurium, Strain/Indicator: TA98, Metabolic Activation: Hamster, liver, S-9, Aroclor 1254 (30%), Method: Preincubation) was “inactive; negative”. The mutagenic call (Test System: Ames Salmonella typhimurium, Strain/Indicator: TA98, Metabolic Activation: Hamster, liver, S-9, Aroclor 1254, 30%, Method: Preincubation) was “inactive; negative”, the mutagenic call (Test System: Ames Salmonella typhimurium, Strain/Indicator: TA98, Metabolic Activation: Rat, liver, S-9, Aroclor 1254, 30%, Method: Preincubation) was “inactive; negative” and the mutagenic call (Test System: Ames Salmonella typhimurium, Strain/Indicator: TA100, Metabolic Activation: Hamster, liver, S-9, Aroclor 125, 30%, Method: Preincubation) was “inactive; negative”. The mutagenic call (Test System: Ames Salmonella typhimurium, Strain/Indicator: TA100, Metabolic Activation: Hamster, liver, S-9, Aroclor 1254, 30%, Method: Preincubation) was “inactive; negative”, the mutagenic call (Test System: Ames Salmonella typhimurium, Strain/Indicator: TA100, Metabolic Activation: None, Method: Preincubation) was “active; positive” and the mutagenic call (Test System: Ames Salmonella typhimurium, Strain/Indicator: TA100, Metabolic Activation: Rat, liver, S-9, Aroclor 1254, 30%, Method: Preincubation) was “inactive; negative”. For the same compound, the mutagenic call (Test System: Ames Salmonella typhimurium, Strain/Indicator: TA1535, Metabolic Activation: None, Method: Preincubation) was “active; positive, three trials performed; ntp described results as positive, weakly posi”, the mutagenic call (Test System: E. COLI, Strain/Indicator: WP2 (PKM101), Metabolic Activation: RAT, LIVER, S-9, PHENOBARBITAL AND 5,6-BENZOFLAVONE, Method: STANDARD PLATE) was “inactive; negative” and the mutagenic call (Test System: E. COLI, Strain/Indicator: WP2 UVRA (PKM101), Metabolic Activation: RAT, LIVER, S-9, PHENOBARBITAL AND 5,6-BENZOFLAVONE, Method: STANDARD PLATE) was “inactive; negative”. The mutagenic call (Test System: E. COLI, Strain/Indicator: WP2 UVRA, Metabolic Activation: NONE, Method: STANDARD PLATE) was “inactive; negative”, the mutagenic call (Test System: E. COLI, Strain/Indicator: WP2 UVRA, Metabolic Activation: RAT, LIVER, S-9, AROCLOR 1254, Method: STANDARD PLATE) was “inactive; negative” and the mutagenic call (Test System: MOUSE LYMPHOMA, Strain/Indicator: L5178Y (TK+/TK- -3.7.2C), Metabolic Activation: NONE) was “active; positive”. The mutagenic call (Test System: MOUSE LYMPHOMA, Strain/Indicator: L5178Y (TK+/TK-), Metabolic Activation: NONE, Method: SUSPENSION/PLATE) was “inactive; negative” and the mutagenic call (Test System: MOUSE LYMPHOMA, Strain/Indicator: L5187Y (TK+/TK-), Metabolic Activation: RAT, LIVER, S-9, AROCLOR 1254, Method: SUSPENSION/PLATE) was “inactive; negative”.
For `O=[N+]([O-])c1cc(Cl)cc(Sc2cc(Cl)cc([N+](=O)[O-])c2O)c1O`, the mutagenic call [1] was “inactive; negative”, the mutagenic call (Test System: AMES SALMONELLA TYPHIMURIUM, Strain/Indicator: TA98, Metabolic Activation: RAT, LIVER, S-9, KANECHLOR 400, Method: STANDARD PLATE) was “inactive; negative” and the mutagenic call [2] was “inactive; negative”. The mutagenic call (Test System: AMES SALMONELLA TYPHIMURIUM, Strain/Indicator: TA100, Metabolic Activation: RAT, LIVER, S-9, KANECHLOR 400, Method: STANDARD PLATE) was “inactive; negative”, the mutagenic call [4] was “inactive; negative” and the mutagenic call (Test System: AMES SALMONELLA TYPHIMURIUM, Strain/Indicator: TA1535, Metabolic Activation: RAT, LIVER, S-9, KANECHLOR 400, Method: STANDARD PLATE) was “inactive; negative”. For the same compound, the mutagenic call [5] was “inactive; negative”, the mutagenic call (Test System: AMES SALMONELLA TYPHIMURIUM, Strain/Indicator: TA1537, Metabolic Activation: RAT, LIVER, S-9, KANECHLOR 400, Method: STANDARD PLATE) was “inactive; negative” and the mutagenic call (Test System: AMES SALMONELLA TYPHIMURIUM, Strain/Indicator: TA1538, Metabolic Activation: NONE, Method: STANDARD PLATE) was “inactive; negative”. For the same compound, the mutagenic call (Test System: AMES SALMONELLA TYPHIMURIUM, Strain/Indicator: TA1538, Metabolic Activation: RAT, LIVER, S-9, KANECHLOR 400, Method: STANDARD PLATE) was “inactive; negative”.
For `O[C@H]1C=Cc2c(ccc3cccnc23)[C@@H]1O`, the mutagenic call [3] was “active; positive”.
With `Nc1cccc2c(Cl)nsc12` the mutagenic call (Test System: AMES SALMONELLA TYPHIMURIUM, Strain/Indicator: TA100, Metabolic Activation: S-9, Method: STANDARD PLATE) was “active; positive”.
